Assays:
human HDAC8 = target: T1, human HDAC8 (Homo sapiens, UniProt Q9BY41); test: HDAC8 inhibitor enzymatic assay, % inhibition at fixed concentration; assay type: biochemical; details: read-out: %inhibition of HDACs at 10µM of test compound HDAC8; 10 µM compound
T1 construct: purchased BPS Bioscience 50008
T1 sequence (Q9BY41 1-377): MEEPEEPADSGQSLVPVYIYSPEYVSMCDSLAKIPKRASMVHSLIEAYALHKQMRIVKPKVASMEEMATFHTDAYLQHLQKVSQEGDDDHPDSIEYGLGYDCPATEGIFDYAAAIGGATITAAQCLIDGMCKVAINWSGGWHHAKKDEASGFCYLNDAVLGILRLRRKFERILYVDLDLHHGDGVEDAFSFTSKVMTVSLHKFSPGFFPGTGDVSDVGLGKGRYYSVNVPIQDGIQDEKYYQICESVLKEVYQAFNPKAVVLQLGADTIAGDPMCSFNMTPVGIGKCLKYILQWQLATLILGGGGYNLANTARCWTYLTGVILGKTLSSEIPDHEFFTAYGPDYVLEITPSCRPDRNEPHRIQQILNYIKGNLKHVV

human HDAC10 = target: T2, human HDAC10 (Homo sapiens, UniProt Q969S8); test: HDAC10 inhibitor enzymatic assay, % inhibition at fixed concentration; details: read-out: %inhibition of HDACs at 10µM of test compound HDAC10
T2 sequence (Q969S8 1-669): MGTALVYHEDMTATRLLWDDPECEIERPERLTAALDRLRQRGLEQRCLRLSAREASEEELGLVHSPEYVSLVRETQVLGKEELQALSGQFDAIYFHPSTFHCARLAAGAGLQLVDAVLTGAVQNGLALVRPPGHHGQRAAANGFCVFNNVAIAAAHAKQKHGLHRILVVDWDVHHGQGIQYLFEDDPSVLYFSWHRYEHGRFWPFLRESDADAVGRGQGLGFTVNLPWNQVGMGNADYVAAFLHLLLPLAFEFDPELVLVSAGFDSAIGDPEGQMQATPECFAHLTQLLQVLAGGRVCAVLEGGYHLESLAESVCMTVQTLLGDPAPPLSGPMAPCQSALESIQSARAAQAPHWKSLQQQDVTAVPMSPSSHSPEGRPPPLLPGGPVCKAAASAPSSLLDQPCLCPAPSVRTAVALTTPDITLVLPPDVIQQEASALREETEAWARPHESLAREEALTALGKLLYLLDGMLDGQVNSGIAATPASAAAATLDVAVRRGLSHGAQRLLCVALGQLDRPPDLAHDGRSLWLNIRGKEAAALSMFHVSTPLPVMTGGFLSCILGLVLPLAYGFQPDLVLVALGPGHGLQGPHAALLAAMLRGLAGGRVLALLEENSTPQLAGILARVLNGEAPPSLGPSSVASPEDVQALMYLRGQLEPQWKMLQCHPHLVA

human HDAC6 = target: T3, human HDAC6 (Homo sapiens, UniProt Q9UBN7); test: HDAC6 inhibitor enzymatic assay, % inhibition at fixed concentration; details: read-out: %inhibition of HDACs at 10µM of test compound HDAC6
T3 sequence (Q9UBN7 1-1215): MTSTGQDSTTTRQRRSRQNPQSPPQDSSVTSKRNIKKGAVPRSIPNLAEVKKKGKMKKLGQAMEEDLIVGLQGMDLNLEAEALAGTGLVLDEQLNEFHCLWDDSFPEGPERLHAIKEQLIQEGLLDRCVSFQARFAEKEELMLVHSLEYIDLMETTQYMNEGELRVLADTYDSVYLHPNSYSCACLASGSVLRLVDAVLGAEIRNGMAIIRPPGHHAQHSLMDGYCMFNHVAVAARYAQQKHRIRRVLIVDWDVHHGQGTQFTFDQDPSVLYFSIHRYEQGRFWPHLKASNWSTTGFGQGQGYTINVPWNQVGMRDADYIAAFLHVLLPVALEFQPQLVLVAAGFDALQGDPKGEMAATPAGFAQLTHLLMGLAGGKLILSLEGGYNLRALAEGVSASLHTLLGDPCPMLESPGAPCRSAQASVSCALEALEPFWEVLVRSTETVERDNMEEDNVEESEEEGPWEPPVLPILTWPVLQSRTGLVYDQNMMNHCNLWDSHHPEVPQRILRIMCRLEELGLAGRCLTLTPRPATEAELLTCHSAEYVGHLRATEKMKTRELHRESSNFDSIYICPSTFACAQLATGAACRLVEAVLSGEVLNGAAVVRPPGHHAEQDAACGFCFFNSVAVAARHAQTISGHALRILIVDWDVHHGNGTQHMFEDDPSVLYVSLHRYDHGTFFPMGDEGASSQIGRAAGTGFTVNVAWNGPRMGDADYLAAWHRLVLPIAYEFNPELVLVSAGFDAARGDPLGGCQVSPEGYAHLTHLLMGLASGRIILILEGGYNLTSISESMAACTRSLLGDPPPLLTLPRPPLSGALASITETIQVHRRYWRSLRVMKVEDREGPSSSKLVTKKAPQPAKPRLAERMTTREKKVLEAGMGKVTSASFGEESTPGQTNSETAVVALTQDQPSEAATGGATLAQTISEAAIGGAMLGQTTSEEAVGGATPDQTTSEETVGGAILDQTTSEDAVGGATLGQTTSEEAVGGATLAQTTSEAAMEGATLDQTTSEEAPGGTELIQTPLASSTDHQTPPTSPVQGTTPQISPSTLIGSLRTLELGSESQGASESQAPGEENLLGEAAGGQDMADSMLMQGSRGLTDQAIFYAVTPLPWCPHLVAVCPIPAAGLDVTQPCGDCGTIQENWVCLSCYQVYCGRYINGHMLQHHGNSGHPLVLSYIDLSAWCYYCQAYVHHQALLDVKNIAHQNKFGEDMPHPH

human HDAC11 = target: T4, human HDAC11 (Homo sapiens, UniProt Q96DB2); test: HDAC11 inhibitor enzymatic assay, % inhibition at fixed concentration; details: read-out: %inhibition of HDACs at 10µM of test compound HDAC11
T4 sequence (Q96DB2 1-347): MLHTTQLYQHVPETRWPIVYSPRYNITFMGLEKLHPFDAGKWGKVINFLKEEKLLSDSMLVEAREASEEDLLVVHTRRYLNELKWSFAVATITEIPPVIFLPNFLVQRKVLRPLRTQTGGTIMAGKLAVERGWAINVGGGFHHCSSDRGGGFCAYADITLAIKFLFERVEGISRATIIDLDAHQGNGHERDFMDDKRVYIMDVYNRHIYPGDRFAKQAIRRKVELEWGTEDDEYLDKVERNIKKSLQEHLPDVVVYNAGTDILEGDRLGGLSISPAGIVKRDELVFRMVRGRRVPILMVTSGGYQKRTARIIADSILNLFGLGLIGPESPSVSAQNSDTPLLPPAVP

inhibition at 10 µM (human HDAC8): 56% | inhibition at 10 µM (human HDAC10): 28% | inhibition at 10 µM (human HDAC6): 92% | inhibition at 10 µM (human HDAC11): 6%
SMILES: O=C(CCCSc1nc2ccccc2n1Cc1ccccc1)NO [Compound 10a, 4-((1-benzyl-1H-benzo[d]imidazol-2-yl)thio)-N-hydroxybutanamide]

Source: publication PMC6522981, “Structure-based design generated novel hydroxamic acid based preferential HDAC6 lead inhibitor with on-target cytotoxic activity against primary choroid plexus carcinoma” (Journal of Enzyme Inhibition and Medicinal Chemistry, 2019)
